# Experimental data reported in patent publication US10865208B2, “ATG7 inhibitors and the uses thereof” (Millennium Pharmaceuticals, Inc., priority 2016, dated 2020).
# Target: recombinant human His-ATG7 enzyme (Homo sapiens (Human), UniProt O95352)
# Assay: ATG7 Enzyme Assay (HTRF/FRET, ATG3-GST and Flag-Gabarap)
# Format: biochemical
# Settings: for inhibition at 0.123 µM: Concentration 0.123 μM; for inhibition at 0.123 µM / inhibition at 0.111 µM / inhibition at 0.069 µM: read-out: Percent Inhibition; for inhibition at 0.111 µM: Concentration 0.111 μM; for inhibition at 0.069 µM: Concentration 0.069 μM
# Summary of the method: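 0.15 nM His-ATG7 was reacted with 5 nM ATG3-GST, 5 nM Flag-Gabarap and 10 μM ATP in HEPES pH 7.5 containing MgCl2, GSH and TCEP for 105 min at 24° C, then stopped with EDTA/KF. Eu-anti-Flag and anti-GST-APC HTRF was read after 2 h. Results are given as single-concentration % inhibition or IC50.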
# recombinant human His-ATG7 enzyme, sequence (O95352 whole entry): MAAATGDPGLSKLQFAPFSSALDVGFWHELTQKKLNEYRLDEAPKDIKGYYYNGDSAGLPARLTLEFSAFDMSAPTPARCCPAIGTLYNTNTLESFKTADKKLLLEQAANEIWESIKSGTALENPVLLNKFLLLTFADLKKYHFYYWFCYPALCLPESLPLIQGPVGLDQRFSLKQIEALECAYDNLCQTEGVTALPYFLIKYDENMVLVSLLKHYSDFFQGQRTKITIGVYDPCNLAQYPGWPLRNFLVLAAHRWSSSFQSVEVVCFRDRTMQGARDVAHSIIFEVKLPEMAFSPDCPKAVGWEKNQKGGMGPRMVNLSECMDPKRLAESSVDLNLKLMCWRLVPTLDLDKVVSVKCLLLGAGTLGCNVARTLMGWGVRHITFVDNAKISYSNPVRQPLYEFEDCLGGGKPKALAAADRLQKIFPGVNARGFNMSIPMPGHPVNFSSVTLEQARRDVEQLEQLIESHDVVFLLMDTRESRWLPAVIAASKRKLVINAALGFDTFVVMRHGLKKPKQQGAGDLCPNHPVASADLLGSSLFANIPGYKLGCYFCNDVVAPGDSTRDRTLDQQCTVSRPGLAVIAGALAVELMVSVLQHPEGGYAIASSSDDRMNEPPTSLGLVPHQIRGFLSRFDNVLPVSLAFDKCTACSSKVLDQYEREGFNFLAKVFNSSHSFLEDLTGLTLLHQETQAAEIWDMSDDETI
IC50,inhibition at 0.123 µM,inhibition at 0.111 µM,inhibition at 0.069 µM,Compound
< 20 nM,85%,–,–,"Nc1ncnc2c1c(Sc1cccc(Cl)c1)nn2[C@@H]1O[C@H](COS(N)(=O)=O)[C@@H](O)[C@H]1O [Compound I-40, [(2R,3S,4R,5R)-5-{4-amino-3-[(3-chlorophenyl)sulfanyl]-1H-pyrazolo[3,4-d]pyrimidin-1-yl}-3,4-dihydroxytetrahydrofuran-2-yl]methyl sulfamate]"
20 to 50 nM,–,85%,–,"Cc1ccc(CSc2nn([C@@H]3O[C@H](COS(N)(=O)=O)[C@@H](O)[C@H]3O)c3ncnc(N)c23)cc1 [Compound I-41, [(2R,3S,4R,5R)-5-{4-amino-3-[(4-methylbenzyl)sulfanyl]-1H-pyrazolo[3,4-d]pyrimidin-1-yl}-3,4-dihydroxytetrahydrofuran-2-yl]methyl sulfamate]"
< 20 nM,–,79%,–,"CSc1nn([C@@H]2O[C@H](COS(N)(=O)=O)[C@@H](O)[C@H]2O)c2ncnc(N)c12 [Compound I-42, {(2R,3S,4R,5R)-5-[4-amino-3-(methylsulfanyl)-1H-pyrazolo[3,4-d]pyrimidin-1-yl]-3,4-dihydroxytetrahydrofuran-2-yl}methyl Sulfamate]"
20 to 50 nM,75%,–,–,"C#CCSc1nn([C@@H]2O[C@H](COS(N)(=O)=O)[C@@H](O)[C@H]2O)c2ncnc(N)c12 [Compound I-43, {(2R,3S,4R,5R)-5-[4-amino-3-(prop-2-yn-1-ylsulfanyl)-1H-pyrazolo[3,4-d]pyrimidin-1-yl]-3,4-dihydroxytetrahydrofuran-2-yl}methyl sulfamate]"
20 to 50 nM,84%,–,–,"Nc1ncnc2c1c(SCc1cccc(F)c1)nn2[C@@H]1O[C@H](COS(N)(=O)=O)[C@@H](O)[C@H]1O [Compound I-44, [(2R,3S,4R,5R)-5-{4-amino-3-[(3-fluorobenzyl)sulfanyl]-1H-pyrazolo[3,4-d]pyrimidin-1-yl}-3,4-dihydroxytetrahydrofuran-2-yl]methyl sulfamate]"
20 to 50 nM,73%,–,–,"Nc1ncnc2c1c(SCc1cccnc1)nn2[C@@H]1O[C@H](COS(N)(=O)=O)[C@@H](O)[C@H]1O [Compound I-45, [(2R,3S,4R,5R)-5-{4-amino-3-[(pyridin-3-ylmethyl)sulfanyl]-1H-pyrazolo[3,4-d]pyrimidin-1-yl}-3,4-dihydroxytetrahydrofuran-2-yl]methyl sulfamate]"
< 20 nM,88%,–,–,"Nc1ncnc2c1c(SCCO)nn2[C@@H]1O[C@H](COS(N)(=O)=O)[C@@H](O)[C@H]1O [Compound I-46, [(2R,3S,4R,5R)-5-{4-amino-3-[(2-hydroxyethyl)sulfanyl]-1H-pyrazolo[3,4-d]pyrimidin-1-yl}-3,4-dihydroxytetrahydrofuran-2-yl]methyl sulfamate]"
100 to 500 nM,–,–,16%,"Nc1ncnc2c1cnn2[C@@H]1O[C@H](COS(N)(=O)=O)[C@@H](O)[C@H]1O [Compound I-48, [(2R,3S,4R,5R)-5-(4-amino-1H-pyrazolo[3,4-d]pyrimidin-1-yl)-3,4-dihydroxytetrahydrofuran-2-yl]methyl sulfamate]"
> 500 nM,–,–,7%,"Nc1ncnc2c1c(-c1ccccc1)nn2[C@@H]1O[C@H](COS(N)(=O)=O)[C@@H](O)[C@H]1O [Compound I-49, [(2R,3S,4R,5R)-5-(4-amino-3-phenyl-1H-pyrazolo[3,4-d]pyrimidin-1-yl)-3,4-dihydroxytetrahydrofuran-2-yl]methyl Sulfamate]"
< 20 nM,–,88%,–,"Nc1ncnc2c1c(SCC1CC1)nn2[C@@H]1O[C@H](COS(N)(=O)=O)[C@@H](O)[C@H]1O [Compound I-50, [(2R,3S,4R,5R)-5-{4-amino-3-[(cyclopropylmethyl)sulfanyl]-1H-pyrazolo[3,4-d]pyrimidin-1-yl}-3,4-dihydroxytetrahydrofuran-2-yl]methyl sulfamate]"
20 to 50 nM,85%,–,–,"CCSc1nn([C@@H]2O[C@H](COS(N)(=O)=O)[C@@H](O)[C@H]2O)c2ncnc(N)c12 [Compound I-51, {(2R,3S,4R,5R)-5-[4-amino-3-(ethylsulfanyl)-1H-pyrazolo[3,4-d]pyrimidin-1-yl]-3,4-dihydroxytetrahydrofuran-2-yl}methyl sulfamate]"
20 to 50 nM,83%,–,–,"Nc1ncnc2c1c(SCc1ccccc1)nn2[C@@H]1O[C@H](COS(N)(=O)=O)[C@@H](O)[C@H]1O [Compound I-52, {(2R,3S,4R,5R)-5-[4-amino-3-(benzylsulfanyl)-1H-pyrazolo[3,4-d]pyrimidin-1-yl]-3,4-dihydroxytetrahydrofuran-2-yl}methyl sulfamate]"
20 to 50 nM,82%,–,–,"CC(C)(C)Sc1nn([C@@H]2O[C@H](COS(N)(=O)=O)[C@@H](O)[C@H]2O)c2ncnc(N)c12 [Compound I-53, {(2R,3S,4R,5R)-5-[4-amino-3-(tert-butylsulfanyl)-1H-pyrazolo[3,4-d]pyrimidin-1-yl]-3,4-dihydroxytetrahydrofuran-2-yl}methyl sulfamate]"
< 20 nM,–,84%,–,"Nc1ncnc2c1c(SC1CCC1)nn2[C@@H]1O[C@H](COS(N)(=O)=O)[C@@H](O)[C@H]1O [Compound I-56, {(2R,3S,4R,5R)-5-[4-amino-3-(cyclobutylsulfanyl)-1H-pyrazolo[3,4-d]pyrimidin-1-yl]-3,4-dihydroxytetrahydrofuran-2-yl}methyl sulfamate]"
> 500 nM,13%,–,–,"Nc1ncnc2c1c(-c1ncco1)nn2[C@@H]1O[C@H](COS(N)(=O)=O)[C@@H](O)[C@H]1O [Compound I-57, {(2R,3S,4R,5R)-5-[4-amino-3-(1,3-oxazol-2-yl)-1H-pyrazolo[3,4-d]pyrimidin-1-yl]-3,4-dihydroxytetrahydrofuran-2-yl}methyl sulfamate]"
< 20 nM,87%,–,–,"CC(C)Sc1nn([C@@H]2O[C@H](COS(N)(=O)=O)[C@@H](O)[C@H]2O)c2ncnc(N)c12 [Compound I-58, {(2R,3S,4R,5R)-5-[4-amino-3-(isopropylsulfanyl)-1H-pyrazolo[3,4-d]pyrimidin-1-yl]-3,4-dihydroxytetrahydrofuran-2-yl}methyl Sulfamate]"
20 to 50 nM,75%,–,–,"Nc1ncnc2c1c(SCc1ccccn1)nn2[C@@H]1O[C@H](COS(N)(=O)=O)[C@@H](O)[C@H]1O [Compound I-59, [(2R,3S,4R,5R)-5-{4-amino-3-[(pyridin-2-ylmethyl)sulfanyl]-1H-pyrazolo[3,4-d]pyrimidin-1-yl}-3,4-dihydroxytetrahydrofuran-2-yl]methyl sulfamate]"
50 to 100 nM,59%,–,–,"NC(=S)c1nn([C@@H]2O[C@H](COS(N)(=O)=O)[C@@H](O)[C@H]2O)c2ncnc(N)c12 [Compound I-60, [(2R,3S,4R,5R)-5-(4-amino-3-carbamothioyl-1H-pyrazolo[3,4-d]pyrimidin-1-yl)-3,4-dihydroxytetrahydrofuran-2-yl]methyl Sulfamate]"
20 to 50 nM,83%,–,–,"Cn1cc(Sc2nn([C@@H]3O[C@H](COS(N)(=O)=O)[C@@H](O)[C@H]3O)c3ncnc(N)c23)cn1 [Compound I-61, [(2R,3S,4R,5R)-5-{4-amino-3-[(1-methyl-1H-pyrazol-4-yl)sulfanyl]-1H-pyrazolo[3,4-d]pyrimidin-1-yl}-3,4-dihydroxytetrahydrofuran-2-yl]methyl sulfamate]"
< 20 nM,89%,–,–,"Nc1ncnc2c1c(SC1CCCC1)nn2[C@@H]1O[C@H](COS(N)(=O)=O)[C@@H](O)[C@H]1O [Compound I-62, {(2R,3S,4R,5R)-5-[4-amino-3-(cyclopentylsulfanyl)-1H-pyrazolo[3,4-d]pyrimidin-1-yl]-3,4-dihydroxytetrahydrofuran-2-yl}methyl sulfamate]"
20 to 50 nM,–,83%,–,"Nc1ncnc2c1c(SCc1ccc(F)cc1)nn2[C@@H]1O[C@H](COS(N)(=O)=O)[C@@H](O)[C@H]1O [Compound I-63, [(2R,3S,4R,5R)-5-{4-amino-3-[(4-fluorobenzyl)sulfanyl]-1H-pyrazolo[3,4-d]pyrimidin-1-yl}-3,4-dihydroxytetrahydrofuran-2-yl]methyl sulfamate]"
20 to 50 nM,84%,–,–,"Nc1ncnc2c1c(Sc1ccc(Cl)cc1)nn2[C@@H]1O[C@H](COS(N)(=O)=O)[C@@H](O)[C@H]1O [Compound I-64, [(2R,3S,4R,5R)-5-{4-amino-3-[(4-chlorophenyl)sulfanyl]-1H-pyrazolo[3,4-d]pyrimidin-1-yl}-3,4-dihydroxytetrahydrofuran-2-yl]methyl sulfamate]"
< 20 nM,89%,–,–,"Nc1ncnc2c1c(SC1CC1)nn2[C@@H]1O[C@H](COS(N)(=O)=O)[C@@H](O)[C@H]1O [Compound I-65, {(2R,3S,4R,5R)-5-[4-amino-3-(cyclopropylsulfanyl)-1H-pyrazolo[3,4-d]pyrimidin-1-yl]-3,4-dihydroxytetrahydrofuran-2-yl}methyl Sulfamate]"
20 to 50 nM,68%,–,–,"Nc1ncnc2c1c(Sc1ccncc1)nn2[C@@H]1O[C@H](COS(N)(=O)=O)[C@@H](O)[C@H]1O [Compound I-66, {(2R,3S,4R,5R)-5-[4-amino-3-(pyridin-4-ylsulfanyl)-1H-pyrazolo[3,4-d]pyrimidin-1-yl]-3,4-dihydroxytetrahydrofuran-2-yl}methyl sulfamate]"
50 to 100 nM,64%,–,–,"Nc1ncnc2c1c(SCc1cccc3ccccc13)nn2[C@@H]1O[C@H](COS(N)(=O)=O)[C@@H](O)[C@H]1O [Compound I-67, [(2R,3S,4R,5R)-5-{4-amino-3-[(1-naphthylmethyl)sulfanyl]-1H-pyrazolo[3,4-d]pyrimidin-1-yl}-3,4-dihydroxytetrahydrofuran-2-yl]methyl sulfamate]"
